Laboratory results published in patent US20240384350A1, “METHODS OF TREATING CANCER WITH KINASE INHIBITORS” (BOARD OF REGENTS, THE UNIVERSITY OF TEXAS SYSTEM, priority 2021, published 2024).

Key:
Experiment in all cases: Ba/F3 drug screening, Cell Titer Glo, IC50 Mut/WT
Assay type in all cases: cell-based
[1] = target: T1, EGFR S768I/V769L (Homo sapiens, UniProt P00533, S768I/V769L); conditions: Ba/F3 cells, EGFR S768I/V769L (PACC), Mut/WT
T1 construct: host or cells: Ba/F3
Description: (§1) Data represent the ratio of the IC50 value for a given TKI for cells with a PACC EGFR mutation to the IC50 value for cells with wildtype EGFR.
(§2) Ba/F3 cell generation, drug screening, and IC50 approximations. Ba/F3 cells were obtained as a gift from Dr. Gordon Mills (MD Anderson Cancer Center), and maintained in RPMI (Sigma) containing 10% FBS, 1% penicillin/streptomycin, and 10 ng/ml recombinant mIL-3 (R&D Biosystems). To establish stable Ba/F3 cell lines, Ba/F3 cells were transduced with retroviruses containing mutant EGFR plasmids for 12-24 hours.
(§3) After 48-72 hours of transduction, 2 μg/ml puromycin (Invitrogen) was added to Ba/F3 cell lines in complete RPMI. To select for EGFR positive cell lines, cells were stained with PE-EGFR (Biolegend) and sorted by FACS. After sorting, EGFR positive cells were maintained in RPMI containing 10% FBS, 1% penicillin/streptomycin, and 1 ng/ml EGF to support cell viability. Drug screening was performed as previously described^41,42. Shortly, cells were plated in 384-well plates (Greiner Bio-One) at 2000-3000 cells per well in technical triplicate. Seven different concentrations of TKIs or DMSO vehicle were added to reach a final volume of 40 μL per well. After 72 hours, 11 μL of Cell Titer Glo (Promega) was added to each well. Plates were incubated for a minimum of 10 minutes, and bioluminescence was determined using a FLUOstar OPTIMA plate reader (BMG LABTECH). Raw bioluminescence values were normalized to DMSO control treated cells, and values were plotted in GraphPad Prism. […] Drug screens were performed in technical triplicate on each plate and either duplicate or triplicate biological replicates.

[2] = target: T2, EGFR E709K L858R (Homo sapiens, UniProt P00533, E709K/L858R); conditions: Classical-Like, 72 hours
T2 construct: expressed in transfected cells; host or cells: Ba/F3 cells, retroviral pBabe-Puro vector

[3] = target: T3, EGFR K757R (Homo sapiens, UniProt P00533, K757R); conditions: Ba/F3 cells, EGFR K757R (PACC), Mut/WT
T3 construct: expressed in transfected cells; host or cells: Ba/F3

[4] = target: T4, EGFR L858R/L718V (Homo sapiens, UniProt P00533, L718V/L858R); conditions: Ba/F3 cells, EGFR L858R/L718V (PACC), Mut/WT
T4 construct: host or cells: Ba/F3
Description: as §1, §2, §3

[5] = target: T5, EGFR L858R/C797S (Homo sapiens, UniProt P00533, C797S/L858R); conditions: Ba/F3 cells, EGFR L858R/C797S (PACC), Mut/WT
T5 construct: expressed in transfected cells; host or cells: Ba/F3
Description: as §1, §2, §3

[6] = target: T6, EGFR L861Q (Homo sapiens, UniProt P00533, L861Q); conditions: Classical-Like, 72 hours
T6 construct: expressed in transfected cells; host or cells: Ba/F3 cells, retroviral pBabe-Puro vector
Description: (§4) Data represent the ratio of the IC50 value for a given TKI for cells with a classical-like EGFR mutation to the IC50 value for cells with wildtype EGFR.
as §2
(§5) After 48-72 hours of transduction, 2 μg/ml puromycin (Invitrogen) was added to Ba/F3 cell lines in complete RPMI. To select for EGFR positive cell lines, cells were stained with PE-EGFR (Biolegend) and sorted by FACS. After sorting, EGFR positive cells were maintained in RPMI containing 10% FBS, 1% penicillin/streptomycin, and 1 ng/ml EGF to support cell viability. […] Shortly, cells were plated in 384-well plates (Greiner Bio-One) at 2000-3000 cells per well in technical triplicate. Seven different concentrations of TKIs or DMSO vehicle were added to reach a final volume of 40 μL per well. After 72 hours, 11 μL of Cell Titer Glo (Promega) was added to each well. Plates were incubated for a minimum of 10 minutes, and bioluminescence was determined using a FLUOstar OPTIMA plate reader (BMG LABTECH). Raw bioluminescence values were normalized to DMSO control treated cells, and values were plotted in GraphPad Prism. […] Drug screens were performed in technical triplicate on each plate and either duplicate or triplicate biological replicates.

[7] = target: T7, EGFR Ex19del L718Q (Homo sapiens, UniProt P00533, DEL746-750/L718Q); conditions: Ba/F3 cells, EGFR Ex19del L718Q (PACC), Mut/WT
T7 construct: expressed in transfected cells; host or cells: Ba/F3

[8] = target: T8, EGFR L858R/L792H (Homo sapiens, UniProt P00533, L792H/L858R); conditions: Ba/F3 cells, EGFR L858R/L792H (PACC), Mut/WT
T8 construct: expressed in transfected cells; host or cells: Ba/F3
Description: as §1, §2, §3

[9] = target: T9, EGFR S784F (Homo sapiens, UniProt P00533, S784F); conditions: Classical-Like, 72 hours
T9 construct: expressed in transfected cells; host or cells: Ba/F3 cells, retroviral pBabe-Puro vector (vector made by GeneScript from EGFR WT)
Description: as §4, §2, §5

[10] = target: T10, EGFR N771dupN G724S (Homo sapiens, UniProt P00533, DUP771-771/G724S); conditions: Ex20, 72 hours
T10 construct: expressed in transfected cells; host or cells: Ba/F3 cells, retroviral pBabe-Puro vector (vector made by GeneScript from EGFR G724S, c.2313_2314insAAC)

[11] = target: T11, EGFR L718V (Homo sapiens, UniProt P00533, L718V); conditions: Ba/F3 cells, EGFR L718V (PACC), Mut/WT
T11 construct: expressed in transfected cells; host or cells: Ba/F3
Description: as §1, §2, §3

[12] = target: T12, EGFR L858R T790M L792H (Homo sapiens, UniProt P00533, L792H/L858R/T790M); conditions: T790M-like-3S, 72 hours
T12 construct: expressed in transfected cells; host or cells: Ba/F3
Description: (§6) Data represent the ratio of the IC50 value for a given TKI for cells with a T790M-like-3S EGFR mutation to the IC50 value for cells with wildtype EGFR.
as §2, §3

[13] = target: T13, EGFR L747_K754del insATSPE (Homo sapiens, UniProt P00533, DEL747-749/K754E); conditions: T790M-like-3S, 72 hours
T13 construct: expressed in transfected cells; host or cells: Ba/F3 cells, retroviral pBabe-Puro vector
Description: as §6, §2, §3

[14] = target: T14, EGFR Ex19del/C797S (Homo sapiens, UniProt P00533, C797S/DEL746-750); conditions: Ba/F3 cells, EGFR Ex19del/C797S (PACC), Mut/WT
T14 construct: expressed in transfected cells; host or cells: Ba/F3

[15] = target: T15, EGFR E709K G719S (Homo sapiens, UniProt P00533, E709K/G719S); conditions: Ba/F3 cells, EGFR E709K G719S (PACC), Mut/WT
T15 construct: expressed in transfected cells; host or cells: Ba/F3
Description: as §1, §2, §3

[16] = target: T16, EGFR Ex19del/T790M/G724S (Homo sapiens, UniProt P00533, DEL746-750/G724S/T790M); conditions: T790M-like-3S, 72 hours
T16 construct: expressed in transfected cells; host or cells: Ba/F3
Description: as §6, §2, §3

[17] = target: T17, EGFR L858R/T790M/L718Q (Homo sapiens, UniProt P00533, L718Q/L858R/T790M); conditions: T790M-like-3R, 72 hours
T17 construct: expressed in transfected cells; host or cells: Ba/F3
Description: Data represent the ratio of the IC50 value for a given TKI for cells with a T790M-like-3R EGFR mutation to the IC50 value for cells with wildtype EGFR.
as §2
After 48-72 hours of transduction, 2 μg/ml puromycin (Invitrogen) was added to Ba/F3 cell lines in complete RPMI. To select for EGFR positive cell lines, cells were stained with PE-EGFR (Biolegend) and sorted by FACS. After sorting, EGFR positive cells were maintained in RPMI containing 10% FBS, 1% penicillin/streptomycin, and 1 ng/ml EGF to support cell viability. […] Shortly, cells were plated in 384-well plates (Greiner Bio-One) at 2000-3000 cells per well in technical triplicate. Seven different concentrations of TKIs or DMSO vehicle were added to reach a final volume of 40 μL per well. After 72 hours, 11 μL of Cell Titer Glo (Promega) was added to each well. Plates were incubated for a minimum of 10 minutes, and bioluminescence was determined using a FLUOstar OPTIMA plate reader (BMG LABTECH). Raw bioluminescence values were normalized to DMSO control treated cells, and values were plotted in GraphPad Prism. […] Drug screens were performed in technical triplicate on each plate and either duplicate or triplicate biological replicates. […] Statistical differences between groups were determined by ANOVA as described in the figure legends.

[18] = target: T18, EGFR S720P (Homo sapiens, UniProt P00533, S720P); conditions: Classical-Like, 72 hours
T18 construct: expressed in transfected cells; host or cells: Ba/F3 cells, retroviral pBabe-Puro vector (vector made by GeneScript from EGFR WT)
Description: as §4, §2, §5

[19] = target: T19, EGFR G719S (Homo sapiens, UniProt P00533, G719S); conditions: Ba/F3 cells, EGFR G719S (PACC), Mut/WT
T19 construct: expressed in transfected cells; host or cells: Ba/F3
Description: as §1, §2, §3

[20] = target: T20, EGFR L747S (Homo sapiens, UniProt P00533, L747S); conditions: Ba/F3 cells, EGFR L747S (PACC), Mut/WT
T20 construct: expressed in transfected cells; host or cells: Ba/F3
Description: as §1, §2, §3

[21] = target: T21, EGFR G719A/R776C (Homo sapiens, UniProt P00533, G719A/R776C); conditions: Ba/F3 cells, EGFR G719A/R776C (PACC), Mut/WT
T21 construct: expressed in transfected cells; host or cells: Ba/F3
Description: as §1, §2, §3

[22] = target: T22, EGFR L858R/V834L (Homo sapiens, UniProt P00533, L858R/V834L); conditions: Classical-Like, 72 hours
T22 construct: expressed in transfected cells; host or cells: Ba/F3 cells, retroviral pBabe-Puro vector

[23] = target: T23, EGFR S768I (Homo sapiens, UniProt P00533, S768I); conditions: Ba/F3 cells, EGFR S768I (PACC), Mut/WT
T23 construct: expressed in transfected cells; host or cells: Ba/F3

Compound	ratio of the IC50 value for cells with a PACC EGFR mutation to the IC50 value for cells with wildtype EGFR [1]	ratio of IC50 for cells with mutant EGFR to IC50 for cells with wildtype EGFR (Mut/WT) [2]	ratio of the IC50 value for cells with a PACC EGFR mutation to the IC50 value for cells with wildtype EGFR [3]	ratio of the IC50 value for cells with a PACC EGFR mutation to the IC50 value for cells with wildtype EGFR [4]	ratio of the IC50 value for cells with a PACC EGFR mutation to the IC50 value for cells with wildtype EGFR [5]	ratio of IC50 for cells with mutant EGFR to IC50 for cells with wildtype EGFR (Mut/WT) [6]	ratio of the IC50 value for cells with a PACC EGFR mutation to the IC50 value for cells with wildtype EGFR [7]	ratio of the IC50 value for cells with a PACC EGFR mutation to the IC50 value for cells with wildtype EGFR [8]	ratio of IC50 for cells with mutant EGFR to IC50 for cells with wildtype EGFR (Mut/WT) [9]	ratio of the IC50 value for cells with a PACC EGFR mutation to the IC50 value for cells with wildtype EGFR [11]	ratio of IC50 for cells with mutant EGFR to IC50 for cells with wildtype EGFR (Mut/WT) [12]	ratio of IC50 for cells with mutant EGFR to IC50 for cells with wildtype EGFR (Mut/WT) [13]	ratio of the IC50 value for cells with a PACC EGFR mutation to the IC50 value for cells with wildtype EGFR [14]	ratio of the IC50 value for cells with a PACC EGFR mutation to the IC50 value for cells with wildtype EGFR [15]	ratio of IC50 for cells with mutant EGFR to IC50 for cells with wildtype EGFR (Mut/WT) [16]	ratio of IC50 for cells with mutant EGFR to IC50 for cells with wildtype EGFR (Mut/WT) [17]	ratio of IC50 for cells with mutant EGFR to IC50 for cells with wildtype EGFR (Mut/WT) [18]	ratio of the IC50 value for cells with a PACC EGFR mutation to the IC50 value for cells with wildtype EGFR [19]	ratio of the IC50 value for cells with a PACC EGFR mutation to the IC50 value for cells with wildtype EGFR [20]	ratio of the IC50 value for cells with a PACC EGFR mutation to the IC50 value for cells with wildtype EGFR [21]	further results
C=CC(=O)Nc1cccc(Oc2nc(Nc3ccc(N4CCN(C)CC4)cc3)nc3ccsc23)c1 [Olmutinib]	0.3582	0.01609	0.1439	0.8629	2.242	0.05048	0.03389	0.1405	0.14	0.139	0.004757	0.0001357	2.14	0.3569	0.005075	0.6196	0.003331	0.214	0.06291	0.1805	ratio of IC50 for cells with mutant EGFR to IC50 for cells with wildtype EGFR (Mut/WT) [10]: 0.4165; ratio of IC50 for cells with mutant EGFR to IC50 for cells with wildtype EGFR (Mut/WT) [22]: 0.006716; ratio of the IC50 value for cells with a PACC EGFR mutation to the IC50 value for cells with wildtype EGFR [23]: 0.007216
C=CC(=O)N1CC[C@@H](Oc2nc(Nc3ccc(N4CCC(N5CCN(C)CC5)CC4)cc3)c(C(N)=O)nc2CC)C1 [Naquotinib]	1.734	0.0818	1.658	3.358	5.266	0.1616	0.05586	0.2624	0.3727	0.5426	0.03529	0.00433	11.45	0.5339	0.02849	0.6815	0.03397	0.2727	0.8911	0.2899	ratio of IC50 for cells with mutant EGFR to IC50 for cells with wildtype EGFR (Mut/WT) [10]: 2.781; ratio of IC50 for cells with mutant EGFR to IC50 for cells with wildtype EGFR (Mut/WT) [22]: 0.05339; ratio of the IC50 value for cells with a PACC EGFR mutation to the IC50 value for cells with wildtype EGFR [23]: 1.09
C=CC(=O)Nc1cc(Nc2nccc(-n3cc(CN(C)C)c(-c4ccccc4)n3)n2)c(OC)cc1N1CCOCC1 [Lazertinib]	0.666	0.0006261	0.349	2.619	28.05	0.05622	0.08238	0.1416	0.245	0.6184	0.0005009	2.781	11.82	0.2652	0.02984	11.87	0.01568	0.1555	1.007	0.5224	ratio of IC50 for cells with mutant EGFR to IC50 for cells with wildtype EGFR (Mut/WT) [22]: 0.003768; ratio of the IC50 value for cells with a PACC EGFR mutation to the IC50 value for cells with wildtype EGFR [23]: 1.26
